Experimental data from patent publication US8802597B2, “Herbicidal pyrimidines” (E I du Pont de Nemours and Company, priority 2003, dated 2014).

Tests used:
Assay type in all cases: in vivo
[1] = system: barnyardgrass (Echinochloa crus-galli); assay: Test B flooded paddy test; settings: Flood, scale 0 to 100
How it was run: (§1)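 Visual injury scoring (0 = no effect, 100 = complete control) versus controls made 13 to 15 days after treatment in the greenhouse. Test species were grown in flooded paddy to the 2-leaf stage: rice, barnyardgrass, umbrella sedge, duck salad.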

rice (Oryza sativa) = assay: Test B flooded paddy test; settings: Flood, scale 0 to 100
How it was run: as §1

[2] = system: duck salad (Heteranthera limosa); assay: Test B flooded paddy test; settings: Flood, scale 0 to 100
How it was run: as §1

[3] = system: umbrella sedge (Cyperus difformis); assay: Test B flooded paddy test; settings: Flood, scale 0 to 100
How it was run: as §1

[4] = system: pigweed (Amaranthus retroflexus); assay: Test B pre/postemergence; settings: for Pigweed plant response rating: Postemergence; for Plant response rating, Pigweed: Preemergence
How it was run: (§2)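 Formulation: non-phytotoxic solvent blend with surfactant. Timing: preemergence on seeds, postemergence at 1- to 4-leaf (2–18 cm). Assessment: visual, 0–100 against controls, after 13–15 days' greenhouse growth.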

[5] = system: barnyardgrass (Echinochloa crus-galli); assay: Test B pre/postemergence; settings: for Barnyardgrass plant response rating: Postemergence; for Plant response rating, Barnyardgrass: Preemergence
How it was run: as §2

[6] = system: velvetleaf (Abutilon theophrasti); assay: Test B pre/postemergence; settings: for Velvetleaf plant response rating: Postemergence; for Plant response rating, Velvetleaf: Preemergence
How it was run: as §2

corn (Zea mays) = assay: Test B pre/postemergence; settings: for Corn plant response rating: Postemergence; for Plant response rating, Corn: Preemergence
How it was run: as §2

[7] = system: morningglory (Ipomoea coccinea); assay: Test B pre/postemergence; settings: for Morningglory plant response rating: Postemergence; for Plant response rating, Morningglory: Preemergence
How it was run: as §2

[8] = system: giant foxtail (Setaria faberii); assay: Test B pre/postemergence; settings: for Foxtail, Giant plant response rating: Postemergence; for Plant response rating, Foxtail, Giant: Preemergence
How it was run: as §2

[9] = system: wheat (Triticum aestivum); assay: Test B pre/postemergence; settings: for Wheat plant response rating: Postemergence; for Plant response rating, Wheat: Preemergence
How it was run: as §2

[10] = system: crabgrass (Digitaria sanguinalis); assay: Test B pre/postemergence; settings: for Crabgrass plant response rating: Postemergence; for Plant response rating, Crabgrass: Preemergence
How it was run: as §2

[11] = system: cocklebur (Xanthium strumarium); assay: Test B pre/postemergence; settings: for Cocklebur plant response rating: Postemergence; for Plant response rating, Cocklebur: Preemergence
How it was run: as §2

[12] = system: Surinam grass (Brachiaria decumbens); assay: Test B pre/postemergence; settings: for Surinam Grass plant response rating: Postemergence; for Plant response rating, Surinam Grass: Preemergence
How it was run: as §2

[13] = system: lambsquarters (Chenopodium album); assay: Test B pre/postemergence; settings: for Lambsquarters plant response rating: Postemergence; for Plant response rating, Lambsquarters: Preemergence
How it was run: as §2

[14] = system: blackgrass (Alopecurus myosuroides); assay: Test B postemergence; settings: scale 0 to 100 (0 no effect, 100 complete control)
How it was run: as §2

wild oat (Avena fatua) = assay: Test B postemergence; settings: scale 0 to 100 (0 no effect, 100 complete control)
How it was run: as §2

[15] = 62 g ai/ha, scale 0 to 100 (0 no effect, 100 complete control)
[16] = 125 g ai/ha, scale 0 to 100 (0 no effect, 100 complete control)
[17] = 62 g ai/ha, scale 0 to 100, 0 no effect, 100 complete control

## Nc1nc(-c2ccc(Cl)cc2)nc(C(=O)[O-])c1Cl.[Na+] [Compound 117]
[1]; 125 g ai/ha
  Plant response rating, Barnyardgrass: 20
[1]; 500 g ai/ha
  Plant response rating, Barnyardgrass: 70
Rice (Oryza sativa); 125 g ai/ha
  Plant response rating, Rice: 20
Rice (Oryza sativa); 500 g ai/ha
  Plant response rating, Rice: 50
[2]; 125 g ai/ha
  Plant response rating, Ducksalad: 100
[2]; 500 g ai/ha
  Plant response rating, Ducksalad: 100
[3]; 125 g ai/ha
  Plant response rating, Sedge, Umbrella: 80
[3]; 500 g ai/ha
  Plant response rating, Sedge, Umbrella: 90
[4]; [15]
  Pigweed plant response rating: 100
[4]; [16]
  Pigweed plant response rating: 100
  Plant response rating, Pigweed: 100
[4]; [17]
  Plant response rating, Pigweed: 100
[5]; [15]
  Barnyardgrass plant response rating: 90
[5]; [16]
  Barnyardgrass plant response rating: 90
  Plant response rating, Barnyardgrass: 30
[5]; [17]
  Plant response rating, Barnyardgrass: 10
[6]; [15]
  Velvetleaf plant response rating: 90
[6]; [16]
  Velvetleaf plant response rating: 100
  Plant response rating, Velvetleaf: 90
[6]; [17]
  Plant response rating, Velvetleaf: 70
Corn (Zea mays); [15]
  Corn plant response rating: 90
Corn (Zea mays); [16]
  Corn plant response rating: 90
  Plant response rating, Corn: 10
Corn (Zea mays); [17]
  Plant response rating, Corn: 0
[7]; [15]
  Morningglory plant response rating: 80
[7]; [16]
  Morningglory plant response rating: 100
  Plant response rating, Morningglory: 20
[7]; [17]
  Plant response rating, Morningglory: 10
[8]; [15]
  Foxtail, Giant plant response rating: 80
[8]; [16]
  Foxtail, Giant plant response rating: 80
  Plant response rating, Foxtail, Giant: 90
[8]; [17]
  Plant response rating, Foxtail, Giant: 20
[9]; [15]
  Wheat plant response rating: 50
[9]; [16]
  Wheat plant response rating: 70
  Plant response rating, Wheat: 80
[9]; [17]
  Plant response rating, Wheat: 50
[10]; [15]
  Crabgrass plant response rating: 60
[10]; [16]
  Crabgrass plant response rating: 80
  Plant response rating, Crabgrass: 90
[10]; [17]
  Plant response rating, Crabgrass: 90
[11]; [15]
  Cocklebur plant response rating: 100
[11]; [16]
  Cocklebur plant response rating: 100
  Plant response rating, Cocklebur: 90
[11]; [17]
  Plant response rating, Cocklebur: 50
[12]; [15]
  Surinam Grass plant response rating: 70
[12]; [16]
  Surinam Grass plant response rating: 70
  Plant response rating, Surinam Grass: 100
[12]; [17]
  Plant response rating, Surinam Grass: 80
[13]; [15]
  Lambsquarters plant response rating: 90
[13]; [16]
  Lambsquarters plant response rating: 100
  Plant response rating, Lambsquarters: 100
[13]; [17]
  Plant response rating, Lambsquarters: 90
[14]; 62 g ai/ha
  Blackgrass plant response rating: 60
[14]; 125 g ai/ha
  Blackgrass plant response rating: 70
Wild oat (Avena fatua); 62 g ai/ha
  Oat, Wild plant response rating: 30
Wild oat (Avena fatua); 125 g ai/ha
  Oat, Wild plant response rating: 50
